From PubChem BioAssay (NCI) come the findings set out here.

Holding throughout (experiment): inhibition of tumour cell growth, NCI panel, 48 h
Test [1] has as its system BT-549 breast.
For test [2], the system named is DU-145 prostate.
Test [3] relates to HCT-116 colon.
The subject of test [4] is HOP-62 NSCLC.
The subject of test [5] is LOX IMVI melanoma.
Test [6] concerns OVCAR-8 ovarian.
For test [7], the system named is PC-3 prostate.
The subject of test [8] is SN12C renal.
The subject of test [9] is UACC-62 melanoma.
Test [10] deals with NCI-H23 lung.

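Each compound was tested at five concentrations against cells in 96-well plates for 48 hours. TGI denotes the concentration required for complete inhibition of growth.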

Regarding `CC(=O)OCC1OC(N2C(=O)NC(=O)C3C=C4CCCCC4=CC32)CC1OC(C)=O` (stereo unspecified), the TGI in test [1], in [2], in test [3], in test [4], in test [5] and in test [6] was greater than 100 µM each time. For the same molecule, the TGI in test [7], in test [8] and in test [9] was greater than 100 µM each time.
On to `O=C1/C(=C/c2ccc(Cl)cc2)Oc2cc(O)ccc21`, for which the TGI in [1], in test [2], in [3], in [4], in test [10] and in test [6] was greater than 100 µM in each case. Further, the TGI in test [7] was 89.7 µM; in test [8] it was greater than 100 µM; in test [9], greater than 100 µM.
Regarding `CCOC(=O)c1c(NS(=O)(=O)c2ccc(C)cc2)sc2c1CCCC2`, the TGI was greater than 100 µM in test [1]; greater than 100 µM in test [2]; 73 µM in [3]; 60.2 µM in test [4]; 54 µM in [10]; greater than 100 µM in test [6]. For the same molecule, the TGI in test [7] was greater than 100 µM; in [8], greater than 100 µM; in test [9] it was 56.5 µM.
Regarding `O=C1c2cc(I)ccc2N2CCN=C2N1Cc1ccccc1`, the TGI in test [1], in [2], in [3], in [4], in test [5] and in test [10] was greater than 100 µM throughout. Moreover, the TGI in test [6], in [7] and in [8] was greater than 100 µM in each case.
For `CSc1ncc2c(n1)-c1ccccc1OC2N1CCOCC1` (stereo unspecified), the TGI in [1], in test [2], in test [3], in test [5], in test [10] and in [6] was greater than 100 µM throughout. The TGI in test [7], in test [8] and in test [9] was greater than 100 µM throughout.
Regarding `O=c1cc(-c2ccccc2)[nH]c2ncccc12`, the TGI in test [1] is greater than 100 µM; in [2] it was greater than 100 µM; in [3], greater than 54 µM; in test [4], greater than 100 µM; in [5], greater than 100 µM; in test [6] it was 4.01 µM. Also, the TGI in test [7] is greater than 27.9 µM.
Take `O=C(CN1CCCC1=O)CS(=O)(=O)c1ccccc1`: the TGI in [1], in [2], in test [3], in test [4], in test [5] and in [10] was greater than 100 µM each time. Besides, the TGI in [6], in test [7] and in [9] was greater than 100 µM in each case.
As to `Cn1c(-c2ccc[se]2)ccc1-c1ccc(C=O)[se]1`, the TGI was 65.4 µM in [1]; greater than 100 µM in test [2]; greater than 100 µM in [3]; 35.3 µM in test [4]; 30.1 µM in test [5]; 48.9 µM in [10]. Further, the TGI is 42.2 µM in test [6], greater than 100 µM in [7] and greater than 67.9 µM in test [8].
On to `COc1ccc(-n2c(SC(CN3CCOCC3)CN3CCCC3=O)nc3ccccc3c2=O)cc1` (stereo unspecified), for which the TGI in test [1], in test [2], in test [3], in [10], in [6] and in test [7] was greater than 100 µM in each case. Besides, the TGI in test [8] and in test [9] was greater than 100 µM throughout.
As to `O=c1[nH]c2ccccc2c(O)c1Cc1ccccc1`, the TGI in [1], in [2], in [3], in test [4], in test [5] and in test [10] was greater than 100 µM throughout. Further, the TGI in test [6], in test [7] and in test [8] was greater than 100 µM in each case.
Take `O=C(c1ccccc1)N1CCN(C(=S)NC2CCCCC2)C1=S`: the TGI in test [1] was 44.2 µM; in [2] it was 57.9 µM; in test [3], 32.6 µM; in [4], 37.3 µM; in test [5], 31.1 µM; in test [10], 36.1 µM. In addition, the TGI in [6] was 32.9 µM; in test [8], 40 µM; in test [9] it was 35.6 µM.
As for `Cc1cc2c(c(C(=O)NCC(=O)N[C@@H](C)C(=O)OCc3ccccc3)c1)Oc1c(cc(C)cc1C(=O)NCC(=O)N[C@@H](C)C(=O)OCc1ccccc1)S2`, the TGI in test [1], in [2], in test [3], in test [4], in test [10] and in test [6] was greater than 100 µM in each case. Besides, the TGI in test [7], in [8] and in test [9] was greater than 100 µM in each case.
For the molecule `Cc1c(Cc2ccccc2)n(C(C)OCCN(OC(=O)Oc2ccccc2)C(=O)Oc2ccccc2)c(=O)[nH]c1=O` (stereo unspecified), the TGI in [1] came out at 33 µM; in test [2] it was 85.1 µM; in test [3], 41.6 µM; in test [4], 36.7 µM; in test [10], 31 µM; in test [6], 34.7 µM. For the same molecule, the TGI is 58.9 µM in test [7], 40.5 µM in test [8] and 30.5 µM in test [9].
Turning to `Clc1cc(-c2ccccc2)nc(Nc2nc3ccccc3[nH]2)n1`, the TGI was 52.9 µM in test [1]; greater than 100 µM in test [2]; greater than 100 µM in [3]; 56 µM in test [10]; 54.2 µM in test [6]; greater than 100 µM in test [7]. The TGI in test [8] came to 63 µM; in test [9], 35.4 µM.
Take `COc1ccc2c(c1)CC[C@@H]1C2CC[C@]2(C)C(=O)N(CCN(C)C)C(=O)CC12` (stereo partly specified): the TGI in test [1], in test [2], in test [3], in [4], in test [10] and in test [6] was greater than 100 µM in each case. The TGI in test [7], in test [8] and in test [9] was greater than 100 µM each time.
